Reference: publication PMC6272715, “Discovery of Novel Small Molecule Anti-HCV Agents via the CypA Inhibitory Mechanism Using O-Acylation-Directed Lead Optimization” (Molecules, 2015)
Read-outs that look alike come from different tables or passages of the source.

Assays:
HCV JFH1-2a replicon = assay: HCV JFH1-2a subgenomic replicon assay (Renilla luciferase, Huh 7.5.1 replicon cells); type: cell-based; details: Hepatitis C virus
[1] = tested on: JFH1-2a virus (wild type); assay: HCV virus assay, JFH1-2a wild type, Huh 7.5.1 cells; details: Hepatitis C virus, Huh-7.5.1, read-out: Anti-HCV Activity EC50 ± SD Virus Assay JFH1-2a
CypA = CypA (Homo sapiens, UniProt P62937); assay: CypA enzyme inhibition assay (chymotrypsin-coupled PPIase assay); type: biochemical; details: mean ± SD of five independent experiments
Sequence of CypA (P62937 whole entry): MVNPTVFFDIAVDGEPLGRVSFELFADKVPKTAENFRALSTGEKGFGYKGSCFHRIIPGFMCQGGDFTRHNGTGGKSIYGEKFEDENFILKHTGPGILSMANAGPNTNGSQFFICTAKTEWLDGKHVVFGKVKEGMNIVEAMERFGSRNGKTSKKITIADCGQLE
Method: The PPIase activity of CypA was conducted in a coupled assay with chymotrypsin using the synthetic tetrapeptide N-succinyl-Ala-Ala-Pro-Phe-p-nitroanilide (Sigma, Shanghai, China) as described in [34] with small modifications. The assay buffer (20 mM Tris-HCl, 50 mM NaCl, pH 7.8) and CypA were precooled at 4 °C and mixed with 0.4 mg∙mL^−1 chymotrypsin (20 mg∙mL^−1 in 1 mM HCl). The reaction was initiated by adding peptide substrate (2 mg∙mL^−1 in 500 mM LiCl in tetrahydrofuran (THF)). […] Absorbance readings were collected every 0.1 s and the temperature was controlled at 4 °C during the assay. The progress curves were analyzed by nonlinear least-squares fit. The inhibition assays of compounds were performed in the same manner as above-mentioned. […] of test compounds in DMSO, at various concentrations, was added to the CypA solution in the assay buffer. After being preincubated for 1 h at 4 °C, the assay was started by the addition of chymotrypsin and the substrate. To calculate the half-maximal inhibitory concentration (IC50), a percent of the remaining PPIase activity was plotted against the common logarithm of the compound concentration, and the data were fitted using the sigmoidal fitting model of Origin 7.0 software.

[2] = Cell proliferation (cytotoxicity) assay, WST-1; type: cell-based; details: human, Huh 7.5.1 cells, Table 4, 48 h
Method: Cell Proliferation Assay: Huh 7.5.1 cells were seeded at a density of 2 × 10^4 cells per well in 96-well plates overnight. The cells were respectively incubated with serial diluted compounds for 48 h, and the viability of Huh7.5.1 cells was determined in 96-well tissue culture plates using cell proliferation reagent WST-1 (Roche, Basel, Switzerland). The absorbance (OD450 /reference OD630) was measured to detect the cytotoxicity of compounds, according to the manufacturer’s protocol of Cell Proliferation Reagent WST-1.

HCV Con1-1b replicon = assay: HCV Con1-1b subgenomic replicon assay; type: cell-based; details: Hepatitis C virus; Table 4; read-out: Anti-HCV Activity EC50 ± SD Replicon Assay Con1-1b
HCV H77-1a replicon = assay: HCV H77-1a subgenomic replicon assay; type: cell-based; details: Hepatitis C virus; Table 4; read-out: Anti-HCV Activity EC50 ± SD Replicon Assay H77-1a
[3] = Table 4, read-out: Anti-HCV Activity EC50 ± SD Replicon Assay JFH1-2a

Structure (SMILES) | EC50 (HCV JFH1-2a replicon; Table 1, mean ± SD of three independent experiments, read-out: Anti-HCV JFH1-2a Replicon Assay EC50 ± SD) [nM] | EC50 [1] [nM] | IC50 (CypA) [nM] | CC50 at 48 h [2] [µM] | EC50 (HCV Con1-1b replicon) [nM] | melting point [°C] | EC50 (HCV JFH1-2a replicon; [3]) [nM] | EC50 (HCV H77-1a replicon) [nM]
O=C(NC(=O)c1c(OCCO)cccc1OCCO)NC1c2ccccc2-c2ccccc21 [Compound 17] | > 20000 |  |  |  |  |  |  | 
O=C(NC(=O)c1c(O)cccc1OC(=O)c1ccccc1)NC1c2ccccc2-c2ccccc21 [Compound 18, 1-(2-Benzoyloxy-6-hydroxybenzoyl)-3-(9H-fluoren-9-yl)-urea] |  | 700 ± 230 | 1990 ± 470 | > 16 | 1030 ± 20 | 211 to 214 | 1050 ± 10 | 600 ± 350
CCC(=O)Oc1cccc(O)c1C(=O)NC(=O)NC1c2ccccc2-c2ccccc21 [Compound 19, 1-(2-Hydroxy-6-propionyloxybenzoyl)-3-(9H-fluoren-9-yl)-urea] |  | 470 ± 40 |  | > 16 | 720 ± 200 | 206 to 216 | 940 ± 70 | 380 ± 220
CCCC(=O)Oc1cccc(O)c1C(=O)NC(=O)NC1c2ccccc2-c2ccccc21 [Compound 20, 1-(2-Hydroxy-6-n-butyryloxybenzoyl)-3-(9H-fluoren-9-yl)-urea] |  | 280 ± 20 |  | > 16 | 490 ± 20 | 204 to 210 | 700 ± 20 | 980 ± 30
O=C(NC(=O)c1c(O)cccc1OC(=O)C1CC1)NC1c2ccccc2-c2ccccc21 [Compound 21, 1-(2-Cyclopropyl formyloxy-6-hydroxybenzoyl)-3-(9H-fluoren-9-yl)-urea] |  | 780 ± 350 |  | > 16 | 850 ± 240 | 194 to 199 | 430 ± 80 | 570 ± 200
CCCCC(=O)Oc1cccc(O)c1C(=O)NC(=O)NC1c2ccccc2-c2ccccc21 [Compound 22, 1-(2-Hydroxy-6-valeryloxybenzoyl)-3-(9H-fluoren-9-yl)-urea] |  | 440 ± 30 |  | > 16 | 440 ± 100 | 193 to 199 | 470 ± 20 | 1000 ± 60
CC(C)(C)C(=O)Oc1cccc(O)c1C(=O)NC(=O)NC1c2ccccc2-c2ccccc21 [Compound 23, 1-(2-Hydroxy-6-trimethylacetoxyloxybenzoyl)-3-(9H-fluoren-9-yl)-urea] |  | 530 ± 50 |  | > 16 | 830 ± 280 | 187 to 189 | 480 ± 20 | 670 ± 50
CCCCCC(=O)Oc1cccc(O)c1C(=O)NC(=O)NC1c2ccccc2-c2ccccc21 [Compound 24, 1-(2-Hexanoyloxy-6-hydroxybenzoyl)-3-(9H-fluoren-9-yl)-urea] |  | 740 ± 370 |  | > 16 | 1000 ± 10 | 200 to 222 | 1080 ± 50 | 1050 ± 10
O=C(NC(=O)c1c(OC(=O)c2ccccc2)cccc1OC(=O)c1ccccc1)NC1c2ccccc2-c2ccccc21 [Compound 26, 1-[2,6-Bis-(benzoyloxy)benzoyl]-3-(9H-fluoren-9-yl)-urea] |  | 1090 ± 30 |  | > 16 | 390 ± 50 | 211 to 213 | 360 ± 30 | 530 ± 210
CCC(=O)Oc1cccc(OC(=O)CC)c1C(=O)NC(=O)NC1c2ccccc2-c2ccccc21 [Compound 27, 1-[2,6-Bis-(propionyloxy)benzoyl]-3-(9H-fluoren-9-yl)-urea] |  | 420 ± 80 |  | > 16 | 380 ± 20 | 165 to 167 | 380 ± 30 | 520 ± 270
CCCC(=O)Oc1cccc(OC(=O)CCC)c1C(=O)NC(=O)NC1c2ccccc2-c2ccccc21 [Compound 28, 1-[2,6-Bis-(n-butyryloxy)benzoyl]-3-(9H-fluoren-9-yl)-urea] |  | 680 ± 470 |  | > 16 | 620 ± 150 | 186 to 188 | 840 ± 320 | 790 ± 200
O=C(NC(=O)c1c(OC(=O)C2CC2)cccc1OC(=O)C1CC1)NC1c2ccccc2-c2ccccc21 [Compound 29, 1-[2,6-Bis-(cyclopropylformyloxy)benzoyl]-3-(9H-fluoren-9-yl)-urea] |  | 740 ± 350 |  | > 16 | 600 ± 190 | 183 to 186 | 420 ± 140 | 520 ± 140
CCCCC(=O)Oc1cccc(OC(=O)CCCC)c1C(=O)NC(=O)NC1c2ccccc2-c2ccccc21 [Compound 30, 1-[2,6-Bis-(valeryloxy)benzoyl]-3-(9H-fluoren-9-yl)-urea] |  | 470 ± 10 |  | > 16 | 830 ± 260 | 172 to 174 | 620 ± 50 | 730 ± 110
CC(C)(C)C(=O)Oc1cccc(OC(=O)C(C)(C)C)c1C(=O)NC(=O)NC1c2ccccc2-c2ccccc21 [Compound 31, 1-[2,6-Bis-(trimethylacetoxyloxy)benzoyl]-3-(9H-fluoren-9-yl)-urea] |  | 840 ± 210 |  | > 16 | 560 ± 200 | 202 to 205 | 750 ± 290 | 870 ± 270
CCCCCC(=O)Oc1cccc(OC(=O)CCCCC)c1C(=O)NC(=O)NC1c2ccccc2-c2ccccc21 [Compound 32, 1-[2,6-Bis-(hexanoyloxy)benzoyl]-3-(9H-fluoren-9-yl)-urea] |  | 740 ± 310 |  | > 16 | 730 ± 340 | 162 to 165 | 380 ± 50 | 630 ± 290
CCCCCCCC(=O)Oc1cccc(OC(=O)CCCCCCC)c1C(=O)NC(=O)NC1c2ccccc2-c2ccccc21 [Compound 33, 1-[2,6-Bis-(n-Octanoyloxy)benzoyl]-3-(9H-fluoren-9-yl)-urea] |  | 950 ± 20 |  | > 16 | 730 ± 200 | 152 to 153 | 980 ± 10 | 540 ± 150
